How the values were obtained:
[1] = DRUGMATRIX: GABAA, Flunitrazepam, Central radioligand binding (ligand: [3H] Flunitrazepam); type: cell membranes, Rattus norvegicus, Wistar, Brain, Membrane; settings: Not Active = under 50% inhibition at 10 µM
[2] = molecular target: T1, Alpha-1A adrenergic receptor (Rattus norvegicus, UniProt P43140); experiment: DRUGMATRIX: Alpha-1A adrenergic receptor radioligand binding (ligand: prazosin); type: cell membranes, Wistar, Submaxillary gland, Membrane; settings: Not Active = under 50% inhibition at 10 µM
T1 sequence (P43140 whole entry): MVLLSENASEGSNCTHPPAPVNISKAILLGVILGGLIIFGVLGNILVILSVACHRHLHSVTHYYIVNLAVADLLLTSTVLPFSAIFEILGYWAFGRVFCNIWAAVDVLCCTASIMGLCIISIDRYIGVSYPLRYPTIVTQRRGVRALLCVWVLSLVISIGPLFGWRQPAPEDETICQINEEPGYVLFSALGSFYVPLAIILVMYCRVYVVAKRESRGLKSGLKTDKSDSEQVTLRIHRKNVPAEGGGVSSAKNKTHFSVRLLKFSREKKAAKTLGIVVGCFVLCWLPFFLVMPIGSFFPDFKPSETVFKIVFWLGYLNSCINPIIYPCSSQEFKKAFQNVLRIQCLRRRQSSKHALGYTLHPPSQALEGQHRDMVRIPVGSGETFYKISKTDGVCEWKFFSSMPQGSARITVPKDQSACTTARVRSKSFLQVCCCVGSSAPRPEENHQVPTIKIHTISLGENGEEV

[3] = molecular target: T2, Alpha-2A adrenergic receptor (Homo sapiens, UniProt P08913); type: cell membranes, Sf9, Membrane; further: in other assays of this panel Not Active means under 50% inhibition at 10 µM
T2 sequence (P08913 whole entry): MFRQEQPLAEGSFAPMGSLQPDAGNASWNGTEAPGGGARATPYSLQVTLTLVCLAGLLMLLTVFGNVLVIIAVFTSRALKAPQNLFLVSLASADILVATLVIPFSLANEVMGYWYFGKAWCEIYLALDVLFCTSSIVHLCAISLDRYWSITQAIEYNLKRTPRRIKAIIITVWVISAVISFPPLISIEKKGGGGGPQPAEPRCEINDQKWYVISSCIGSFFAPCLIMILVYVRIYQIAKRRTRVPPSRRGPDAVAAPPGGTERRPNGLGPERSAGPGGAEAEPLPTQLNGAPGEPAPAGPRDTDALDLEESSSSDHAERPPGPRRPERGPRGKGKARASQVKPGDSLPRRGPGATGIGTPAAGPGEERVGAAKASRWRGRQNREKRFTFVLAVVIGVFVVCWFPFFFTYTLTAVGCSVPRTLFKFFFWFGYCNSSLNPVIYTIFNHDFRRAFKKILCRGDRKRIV

[4] = molecular target: Protein kinase C alpha type (Homo sapiens, UniProt P17252); type: cell-based; settings: sf9;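 further: inhibition of PKCalpha kinase activity measured in an enzyme assay with histone as the phosphorylation substrate; in other assays of this panel Not Active means under 50% inhibition at 10 µM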
[5] = DRUGMATRIX: Calcium Channel Type L, Phenylalkylamine radioligand binding (ligand: [3H] (-)-Desmethoxyverapamil (D-888)); type: cell membranes, Rattus norvegicus, Wistar, Brain, Membrane; settings: Not Active = under 50% inhibition at 10 µM
[6] = molecular target: T3, Endothelin-1 receptor (Homo sapiens, UniProt P25101); type: cell membranes, Membrane; settings: cho-k1; further: in other assays of this panel Not Active means under 50% inhibition at 10 µM
T3 sequence (P25101 whole entry): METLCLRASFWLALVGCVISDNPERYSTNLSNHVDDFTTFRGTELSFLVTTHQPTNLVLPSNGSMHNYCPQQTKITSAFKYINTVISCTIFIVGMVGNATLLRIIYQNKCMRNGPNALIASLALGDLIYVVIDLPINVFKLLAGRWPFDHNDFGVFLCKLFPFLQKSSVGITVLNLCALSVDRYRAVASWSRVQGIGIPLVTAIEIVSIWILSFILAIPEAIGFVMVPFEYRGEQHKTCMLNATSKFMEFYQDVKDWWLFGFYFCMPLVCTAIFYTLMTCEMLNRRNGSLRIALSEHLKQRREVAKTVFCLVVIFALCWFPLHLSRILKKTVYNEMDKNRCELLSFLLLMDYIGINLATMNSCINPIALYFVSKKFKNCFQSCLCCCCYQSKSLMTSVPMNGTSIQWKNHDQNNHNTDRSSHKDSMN

**Q.** What does the source list for `O=C1CN(/N=C/c2ccc([N+](=O)[O-])o2)C(=O)N1` [NITROFURANTOIN]?
**A.** IC50 [1]: Not Active; Ki [1]: Not Active; IC50 [2]: Not Active; IC50 ([3]; sf9): Not Active; IC50 [4]: Not Active; IC50 [5]: Not Active; Ki [5]: Not Active; IC50 [6]: Not Active

**Q.** What does the source list for `O=c1[nH]c2ccccc2c2ccccc12`?
**A.** IC50 [1]: Not Active; Ki [1]: Not Active; IC50 [2]: Not Active; IC50 ([3]; sf9): Not Active; IC50 [4]: Not Active; IC50 [5]: Not Active; Ki [5]: Not Active; IC50 [6]: Not Active

**Q.** For `COC(=O)C[C@](O)(CCC(C)(C)O)C(=O)O[C@@H]1C(OC)=C[C@]23CCCN2CCc2cc4c(cc2[C@H]13)OCO4` [HARRINGTONINE], which IC50 [1] is on record?
**A.** Not Active

**Q.** And the Ki [1]?
**A.** Not Active

**Q.** And the IC50 [2]?
**A.** Not Active

**Q.** And the IC50 ([3]; sf9)?
**A.** Not Active

**Q.** What about the IC50 [4] of the same molecule?
**A.** Not Active

**Q.** And the IC50 [5]?
**A.** Not Active

**Q.** And the Ki [5]?
**A.** Not Active

**Q.** And the IC50 [6]?
**A.** Not Active

**Q.** Which IC50 [1] does the source give for `Nc1nc(F)nc2c1ncn2[C@@H]1O[C@H](CO)[C@@H](O)[C@@H]1O` [FLUDARABINE] here?
**A.** Not Active

**Q.** What about the Ki [1] of the same molecule?
**A.** Not Active

**Q.** What about the IC50 [2] of the same molecule?
**A.** Not Active

**Q.** What about the IC50 ([3]; sf9) of the same molecule?
**A.** Not Active

**Q.** What about the IC50 [4] of the same molecule?
**A.** Not Active

**Q.** What about the IC50 [5] of the same molecule?
**A.** Not Active

**Q.** And the Ki [5]?
**A.** Not Active

**Q.** What about the IC50 [6] of the same molecule?
**A.** Not Active

**Q.** What does the source list for `C=C(Cl)Cl` [1,1-DICHLOROETHENE]?
**A.** IC50 [1]: Not Active; Ki [1]: Not Active; IC50 [2]: Not Active; IC50 ([3]; sf9): Not Active; IC50 [4]: Not Active; IC50 [5]: Not Active; Ki [5]: Not Active; IC50 [6]: Not Active

**Q.** For `CC[C@H]1OC(=O)[C@H](C)[C@@H](O[C@H]2C[C@@](C)(OC)[C@@H](O)[C@H](C)O2)[C@H](C)[C@@H](O[C@@H]2O[C@H](C)C[C@H](N(C)C)[C@H]2O)[C@](C)(O)C[C@@H](C)C(=O)[C@H](C)[C@@H](O)[C@]1(C)O` [ERYTHROMYCIN], which IC50 [1] is on record?
**A.** Not Active

**Q.** And the Ki [1]?
**A.** Not Active

**Q.** What about the IC50 [2] of the same molecule?
**A.** Not Active

**Q.** What about the IC50 ([3]; sf9) of the same molecule?
**A.** Not Active

**Q.** And the IC50 [4]?
**A.** Not Active

**Q.** What about the IC50 [5] of the same molecule?
**A.** Not Active

**Q.** What about the Ki [5] of the same molecule?
**A.** Not Active

**Q.** What about the IC50 [6] of the same molecule?
**A.** Not Active

**Q.** Which results are given for `CCC1(c2ccccc2)C(=O)NC(=O)NC1=O` [PHENOBARBITAL]?
**A.** IC50 [1]: Not Active; Ki [1]: Not Active; IC50 [2]: Not Active; IC50 ([3]; sf9): Not Active; IC50 [4]: Not Active; IC50 [5]: Not Active; Ki [5]: Not Active; IC50 [6]: Not Active

**Q.** With `CCN1C[C@]2(COC)[C@H](O)C[C@H](OC)[C@@]34[C@@H]5C[C@@]6(O)[C@H](OC(=O)c7ccccc7)[C@@H]5[C@@](OC(C)=O)([C@@H]([C@H](OC)[C@H]23)[C@@H]14)[C@@H](O)[C@@H]6OC` [ACONITINE] as the molecule, how does the IC50 [1] read?
**A.** Not Active

**Q.** And the Ki [1]?
**A.** Not Active

**Q.** What about the IC50 [2] of the same molecule?
**A.** Not Active

**Q.** And the IC50 ([3]; sf9)?
**A.** Not Active

**Q.** What about the IC50 [4] of the same molecule?
**A.** Not Active

**Q.** What about the IC50 [5] of the same molecule?
**A.** Not Active

**Q.** What about the Ki [5] of the same molecule?
**A.** Not Active

**Q.** And the IC50 [6]?
**A.** Not Active

**Q.** What does the source list for `CCN1CCN(C(=O)N[C@@H](C(=O)N[C@@H]2C(=O)N3[C@@H]2SC(C)(C)[C@@H]3C(=O)O)c2ccccc2)C(=O)C1=O` [PIPERACILLIN]?
**A.** IC50 [1]: Not Active; Ki [1]: Not Active; IC50 [2]: Not Active; IC50 ([3]; sf9): Not Active; IC50 [4]: Not Active; IC50 [5]: Not Active; Ki [5]: Not Active; IC50 [6]: Not Active

**Q.** What does the source list for `O=C(O)c1ccccc1` [BENZOIC ACID]?
**A.** IC50 [1]: Not Active; Ki [1]: Not Active; IC50 [2]: Not Active; IC50 ([3]; sf9): Not Active; IC50 [4]: Not Active; IC50 [5]: Not Active; Ki [5]: Not Active; IC50 [6]: Not Active

**Q.** For `OC[C@H]1O[C@@H]2O[C@H]3[C@H](O)[C@@H](O)[C@@H](O[C@H]4[C@H](O)[C@@H](O)[C@@H](O[C@H]5[C@H](O)[C@@H](O)[C@@H](O[C@H]6[C@H](O)[C@@H](O)[C@@H](O[C@H]7[C@H](O)[C@@H](O)[C@@H](O[C@H]1[C@H](O)[C@H]2O)O[C@@H]7CO)O[C@@H]6CO)O[C@@H]5CO)O[C@@H]4CO)O[C@@H]3CO` [ALFADEX], which IC50 [1] is on record?
**A.** Not Active

**Q.** What about the Ki [1] of the same molecule?
**A.** Not Active

**Q.** And the IC50 [2]?
**A.** Not Active

**Q.** What about the IC50 ([3]; sf9) of the same molecule?
**A.** Not Active

**Q.** What about the IC50 [4] of the same molecule?
**A.** Not Active

**Q.** What about the IC50 [5] of the same molecule?
**A.** Not Active

**Q.** And the Ki [5]?
**A.** Not Active

**Q.** And the IC50 [6]?
**A.** Not Active

**Q.** Which results are given for `c1ccc2sc(SSc3nc4ccccc4s3)nc2c1` [BENZOTHIAZYL DISULFIDE]?
**A.** IC50 [1]: Not Active; Ki [1]: Not Active; IC50 [2]: Not Active; IC50 ([3]; read-out: IC50): 899 nM; Ki ([3]; read-out: Ki): 337 nM; IC50 [4]: Not Active; IC50 [5]: Not Active; Ki [5]: Not Active; IC50 [6]: Not Active

Source: ChEMBL document CHEMBL1909046, “DrugMatrix in vitro pharmacology data”
